Data taken from PubChem BioAssay AID179 (DTP/NCI, 2004).
“And” between values parts separate entries of the source, which are not always exact repeats. Equal entries are not always repeated. The source made the active and inactive calls.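 How the source made its calls: active means compounds giving half or more protection of infected cells from virus-caused growth loss, again on retest; inactive means the rest.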 Where a SMILES comes first, the peptide text is derived from it. [ ]: non-standard residue; d: D form. The star is where a group is joined. Ac5c = NC1(C(=O)O)CCCC1; Boc = CC(C)(C)OC(=O)*; tBu = CC(C)(C)*

Test system: CEM cells HIV-1 protection, formazan growth assay
Experiment: NCI AIDS Antiviral Assay
Conditions: for IC50: measured here: growth of uninfected CEM cells
Summary of the method: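 Protection of CEM cells against HIV-1 was scored from cell growth (soluble formazan) across five concentrations, with parallel uninfected cells. Lack of protection may reflect toxicity.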

SMILES | EC50 | IC50 | outcome
[O-][N+](=Nc1ccccc1CO)c1ccccc1CO | 110 µM | > 200 µM | 
CCN(CC)CCC(=O)c1ccc(Oc2ccccc2)cc1 | > 200 µM | 17.4 µM | 
O=c1oc2ccccc2c(O)c1C=NC(=S)c1ccncc1 | > 200 µM | 182 µM | 
COc1cc(-c2nc(N)c(C#N)c3c2CCS(=O)(=O)c2ccc(C)cc2-3)cc(OC)c1OC | > 200 µM | > 200 µM | 
c1cnc2c3cnc4sccc4c3nn2c1 | > 74.1 µM | > 74.1 µM | 
COc1ccccc1NC(=O)C1=C(C)NC(C)=C(C(=O)Nc2ccccc2OC)C1c1ccc(C2C(C(=O)Nc3ccccc3OC)=C(C)NC(C)=C2C(=O)Nc2ccccc2OC)cc1 | > 1.62 µM | > 1.62 µM | 
COc1ccc2c(c1)NC1(O)c3ccccc3C(=O)C21O (stereo not given) | > 331 µM | > 331 µM | 
CCC12C=CCN3CCC4(C(=C(C(=O)OC)C1)Nc1ccccc14)[C@H]32 (stereo not given in full) | > 120 µM | 5.25 µM | 
C=C(Br)CC12CC3(CCC1c1ccc(OC)cc1C2=O)OCCO3 (stereo not given) | > 110 µM | > 110 µM | 
COCCN(C(C)=O)C1CCC2(SCCS2)c2[nH]c3ccccc3c21 (stereo not given) | > 200 µM | > 200 µM | 
C/C(=N\O)c1ccc(S(=O)(=O)c2ccc([N+](=O)[O-])cc2)cc1 | > 200 µM | > 200 µM | 
CCOC(=O)CCC(=O)C1c2cccc(O)c2C(=O)c2c(O)cc(C)cc21 (stereo not given) | > 37.2 µM | 1.35 µM | 
CCOC(=O)C(=O)NC12CC3CC(CC(C3)C1)C2 | > 724 µM | > 724 µM | 
CCOC(=O)c1cn(C)nc1N/C(C)=C\C(=O)c1ccccc1 | > 200 µM | 75.9 µM | 
Cc1cc(C2C(=O)c3ccccc3C2=O)cc(C)c1O |  |  | inactive
NS(=O)(=O)c1ccc(NC(=O)Cc2nc3ccccc3s2)cc1 | > 195 µM | 14.1 µM | 
O=S1(=O)CS(=O)(=O)OCCCCCO1 | > 537 µM | > 537 µM | 
CCCCNC(C)(C)C(SSSC(c1cccs1)C(C)(C)NCCCC)c1cccs1 (stereo not given) | > 200 µM | 20 µM | 
O=C(c1ccccc1)N1OC12CCCCC2 | > 200 µM | 51.3 µM | 
CC(OC(C)(C)C)C1NC(=O)C(CCCCNC(=O)OC(C)(C)C)NC(=O)C(Cc2c[nH]c3ccccc23)NC(=O)C(Cc2ccccc2)NC(=O)C2(CCCC2)NC(=O)C(Cc2ccccc2)NC1=O (stereo not given) (cyclo([Ac5c]FWK(Boc)T(tBu)F); configuration not given here) | > 100 µM | 18.6 µM | 
O=[N+]([O-])c1ccc(N=Nc2ccc(O)c3c(O)cc(S(=O)(=O)O)cc23)cc1S(=O)(=O)O | > 100 µM | > 100 µM | 
COc1ccc(/C=C(\C#N)c2nc3ccccc3c(=O)[nH]2)cc1 |  |  | active
Cc1ccc(C(=O)c2ccccc2C(=O)O)cc1C(=O)O | > 200 µM | > 200 µM | 

SMILES | EC50 | IC50 | outcome
CC(=O)NC1C(OCc2ccccc2)OC(CO)C(O)C1OCC(=O)NC(C)C(=O)NC(CCC(=O)NCCCCCNc1c2ccccc2nc2cccc([N+](=O)[O-])c12)C(N)=O (stereo not given) | > 200 µM | 0.0776 µM | 
COC1/C=C/OC2(C)Oc3c(C)c(O)c4c(O)c(c(/C=N/N5C(C)CN(Cc6cccc(O)c6)CC5C)c(O)c4c3C2=O)NC(=O)/C(C)=C\C=C\C(C)C(O)C(C)C(O)C(C)C(OC(C)=O)C1C (stereo not given) | > 200 µM | 6.46 µM | 
COC1(C)C(=O)NC(=O)N(C2C=CC(CO)O2)C1O (stereo not given) | 7.41 µM | 170 µM | 
C[N+](C)(C)CC(=O)N/N=C(/Cc1nc2c3c(ccc2[nH]c1=O)C(=O)c1ccccc1C3=O)C(=O)Nc1ccc(Cl)c(Cl)c1 | > 20.9 µM | > 20.9 µM | 
Cc1ccc2c3c(c(=O)oc2c1)[C@H](C)C[C@@](C)(CO)O3 | > 200 µM | 178 µM | 
COc1cc(C2c3cc4c(cc3C(O)C3CCC(=O)N23)OCO4)cc(OC)c1OC (stereo not given) | > 200 µM | 18.6 µM | 
N=C(N)SCc1ccc2nsnc2c1 | > 309 µM | 52.5 µM | 
O=C(O)[C@@H]1C[C@@H](O)CN1C(=O)OCc1ccccc1 |  |  | inactive
O=C(O)COc1ccc(O)c2c1C(=O)CCCC2=O |  |  | inactive
Nc1ccn(C2OC(CO)C(O)C2Br)c(=O)n1 (stereo not given) | > 200 µM | 0.0631 µM | 
O=C(/N=C(\c1ccc(F)cc1)c1ccsc1-n1cccc1)Nc1ccccc1 | > 200 µM | 4.9 µM | 
COC(=O)[C@]1(C)CCC[C@@]2(C)C1CC[C@@]13C=C(C(C)C)[C@@H](CC1=O)CC23 (stereo not given in full) | > 200 µM | 36.3 µM | 
CC(C)(O)/C1=C/C=C/CCCCCCCCCC1 | > 200 µM | 34.7 µM | 
Cc1nn(C(=O)Cc2ccccc2)c2c1C(c1ccc([N+](=O)[O-])cc1)SC(N)=N2 (stereo not given) | 77.6 µM | 117 µM | 
CC(=O)/C(=C\n1c(=S)[nH]c2ccc([N+](=O)[O-])cc21)C(=O)Nc1ccccc1C | > 200 µM | 89.1 µM | 
Nc1[nH]c(=S)nc2nc3c4ccccc4c4ccccc4c3nc12 | > 200 µM | > 200 µM | 
COc1cc(/C=C(\C#N)C(=O)c2ccccc2)ccc1OCc1ccccc1 | > 19.5 µM | > 19.5 µM | 
Fc1ccccc1C1SCc2nc3ccccc3n21 (stereo not given) | 11 µM | 38.9 µM | 
N#Cc1c(=N)cc2c3ccccc3oc3c(C#N)c(N)[nH]c1c32 | > 200 µM | 195 µM | 
Cc1c2cccc1CSCc1cccc(c1C)CSC2 | > 123 µM | > 123 µM | 
OCC(CO)c1cnnc2ccccc12 | > 525 µM | > 525 µM | 
CC1(C)OC(=O)C(C)(C)C(=O)O1 |  |  | inactive
CC1=C(C(=O)CC(=O)C(=O)Nc2ccc(C)c(C)c2)Sc2ccccc2N1 | > 6.92 µM | > 6.92 µM | 

SMILES | EC50 | IC50 | outcome
COc1cc(CC(C)N[C@@H](C)c2ccccc2)cc(OC)c1 (stereo not given in full) | > 200 µM | 18.6 µM and 64.6 µM | 
Brc1ccc2noc(-c3ccccc3)c2c1 | > 7.24 µM | > 7.24 µM | 
COc1ccc(O)c(/C(C)=N/NC(=S)N(C)C)c1 | > 200 µM | 10.7 µM | 
c1ccc(C2=NNc3cccc[n+]3C2)cc1 | > 871 µM | 447 µM | 
CC1CC2OC(=O)C3CCCC(=C23)[C@@]12C[C@@H](c1ccoc1)OC2=O (stereo not given in full) | > 550 µM | 269 µM | 
NC(N)=NNC(O)(C(=O)O)C(=O)O | > 200 µM | > 200 µM | 
Cn1c(=O)cc(C=Nc2ccc(N=Nc3ccccc3)cc2)c2ccccc21 | > 200 µM | 1.51 µM | 
Cc1cc(N(CCC#N)CCC#N)ccc1/C=N/NC(=O)c1cc(Cl)ccc1O | > 200 µM | > 200 µM | 
O=c1c2ccccc2c(=O)n2n1C1C=CC2C1 | > 44.7 µM | > 44.7 µM | 
Cn1cnc2c1c(=O)n(CCNCCO)c(=O)n2C | > 200 µM | > 200 µM | 
CC1CC(C)(C)OC(c2ccco2)O1 (stereo not given) | > 200 µM | > 200 µM | 
CCOC(=O)/C(=C\c1cccc(C(F)(F)F)c1)P(=O)(OCC)OCC | > 95.5 µM | 5.01 µM | 
c1ccc2sc(SCN3CCCCC3)nc2c1 | > 200 µM | 81.3 µM | 
COc1cc2c(c(OC)c1OC)-c1ccc(SC)c(=S)cc1[C@@H](NC(C)=O)CC2 |  |  | inactive
Cc1cn(C2CC(N=[N+]=[N-])C(COC(=O)CCCCCCCCCCCOc3ccccc3)O2)c(=O)[nH]c1=O (stereo not given) | 0.0501 µM | 102 µM | 
O=P(O)(Cc1ccccc1)c1ccccc1-c1ccccc1 | > 200 µM | 49 µM | 
CCCCCCCCCC1CC(=O)Oc2cccc(O)c21 (stereo not given) | > 25.1 µM | > 25.1 µM | 
Brc1c(OCc2ccccc2)ccc2ccccc12 | > 200 µM | 191 µM | 
CC(=O)N(C[C@H]1CN(Cc2ccccc2)CC[C@H]1O)C12CC3CC(CC(C3)C1)C2 | > 91.2 µM | 69.2 µM | 
O=C(O)c1c[nH]c2c(ccc3[nH]cc(C(=O)O)c(=O)c32)c1=O | > 200 µM | > 200 µM | 
Cc1ccc(/C=C(/C(=O)c2ccccc2)c2ccccc2)cc1 | > 4.9 µM | > 4.9 µM | 
O=C1/C(=C/c2ccc(O)cc2)CCCC1CN1CCCCC1 (stereo not given) | > 2 µM | 1.86 µM | 
COc1cc(N=Nc2ccc3c(c2)Cc2ccccc2-3)c(OC)cc1N | > 200 µM | 46.8 µM | 

SMILES | EC50 | IC50 | outcome
CN=C(NC)c1ncn(C2OC(CO)C(O)C2O)n1 (stereo not given) |  |  | inactive
[N-]=[N+]=C1N=CN=C1c1ncn[nH]1 | > 200 µM | 4.07 µM | 
OCCCN(CCO)CCN(CCCO)CCCO | > 200 µM | > 200 µM | 
O=[N+]([O-])C(C=C(n1nnc2ccccc21)n1nnc2ccccc21)=C(n1nnc2ccccc21)n1nnc2ccccc21 | > 200 µM | > 200 µM | 
CC1(C)Oc2ncnc(N)c2C1c1ccccc1 (stereo not given) | > 1020 µM | 457 µM | 
CCCCCCCCCCCCC(CC)CCCCC(=O)O (stereo not given) |  |  | inactive
COc1cc(C(=O)N2CCOCC2)cc(OC)c1OC | > 200 µM | > 200 µM | 
CCOC(=O)/C(F)=C/c1cccc(C)c1 | > 126 µM | > 126 µM | 
CC1(C)COC(c2ccc(C(=O)c3ccc(Cl)cc3)cc2)=N1 | > 200 µM | 81.3 µM | 
Cc1ccccc1NC(=O)/C=N/O |  |  | inactive
COCCNc1cncc(C(N)=O)c1 | > 200 µM | > 200 µM | 
Cc1ccc(-c2c(C#N)c(-c3ccccc3)c(C#N)c(=O)n2NS(=O)(=O)c2ccccc2)cc1 | > 200 µM | 69.2 µM | 
Cn1c(=O)cc(C=Nc2ccc(C(=O)O)cc2)c2ccccc21 | > 200 µM | 1.32 µM | 
O=c1[nH]nc(-c2ccc([N+](=O)[O-])cc2)[nH]1 | > 200 µM | > 200 µM | 
CO/C(=N/N1CC1C(F)(F)F)c1ccncc1 (stereo not given) |  |  | inactive
O=[N+]([O-])C1(CO)COC(CCc2ccccc2)OC1 (stereo not given) |  |  | inactive
O=c1[nH]c(=O)c2[nH]c(=O)[nH]c(=O)c2[nH]1 | > 200 µM | > 200 µM | 
NNC(=O)C(CC(C(=O)NN)C(=O)NN)C(=O)NN | > 912 µM | 66.1 µM | 
Fc1sc2c(c1F)C1CCC2C1 (stereo not given) | > 200 µM | 115 µM | 
O=C1OC(=O)c2c1nc1ccccc1c2-c1ccccc1 |  |  | inactive
CC(=O)c1ccc(NCc2cc(O)ccc2O)cc1 | > 200 µM | 10.7 µM | 
CC1=N/C(=C\c2ccccc2C)C(=O)O1 | > 1230 µM | > 1230 µM | 
